Test results reported in PMC8151276, “An Integrated Approach toward NanoBRET Tracers for Analysis of GPCR Ligand Engagement” (Molecules, 2021).

Assays:
Type in all cases: binding
[1] = target: T1, PTGIR (Homo sapiens, UniProt P43119); assay: NanoBRET screen HiBiT-PTGIR in HEK293
T1 construct: purchased Promega (in-house HiBiT-GPCR construct library, NanoBRET)
Procedure: (§1) Each tracer candidate was screened across the entire library of HiBiT-GPCR constructs using NanoBRET as the detection modality. As depicted in Figure 4A, the specificity of interactions was evaluated through decrease in BRET due to competitive displacement of a bound tracer by excess parental compound. Each tracer was analyzed for binding to each HiBiT-GPCR fusion in the absence and in the presence of competing parental compound. Briefly, HEK293 cells were transfected with HiBiT-GPCR constructs diluted into promoterless DNA to reduce expression and maximize translocation to the cell surface. Each tracer candidate was then screened at concentrations of 1 μM and 0.1 μM across cells expressing these fusions. Cells were treated for 1.5 h with tracer either alone or in the presence of 20 μM competing parental compound (i.e., control). BRET was measured upon addition of purified LgBiT and subsequent complementation with HiBiT genetically fused to a GPCR. The specificity of interactions was assessed through a decrease in BRET signal due to competitive displacement of the bound tracer. To further gauge the robustness of these interactions, the fold response over the control (i.e., BRETtracer/BRETcontrol) was calculated. We chose a 1.5-fold response, which translates to ≥7-fold signal over noise as the minimal threshold required to score an interaction as positive. […]. Below we highlight the screening results obtained for our exemplary fluorescent tracers based on Clozapine, Amitriptyline and AZD1283.
(§2) HiBiT-GPCR DNA constructs were diluted in 10 mM Tris pH 8 to a final concentration of 0.01 μg/μL, arrayed in 96-well plates and stored at −20 °C. For transfection, HEK293 cells were suspended in Opti-MEM (without phenol red) supplemented with 2% fetal bovine serum (Seradigm) and 100 units/mL penicillin–streptomycin (Gibco) at a final concentration of 220,000 cells/mL and dispensed into white 96-well plates at 90 μL/well. Subsequent transfections and screens were carried using an Agilent Bravo Automated Liquid Handling Platform. First, the 96-well HiBiT DNA arrays were diluted 25-fold in Opti-MEM (without serum or phenol red) to a final concentration of 0.0004 μg/μL and 20 μL of the diluted DNAs were transferred into new 96-well plates. Next, promoterless carrier DNA (1 μg/μL) was diluted 25-fold (0.04 μg/μL) and then dispensed into the diluted arrays at 20 μL/well. Following brief mixing, Viafect transfection reagent (Promega) diluted 16-fold into Opti-MEM was dispensed into the plates at 40 μL/well. After mixing by pipetting, plates were incubated for 10 min on the pipetting station deck. The DNA-transfection reagent complexes were then added to plates containing cells. To facilitate the screen, 10 μL of DNA-transfection reagent complexes were added in duplicates to the top 4 and bottom 4 rows, resulting in two identical 48-well arrays per plate. Plates with transfected cells were incubated for 18–20 h at 37 °C/5% CO2. A screen of each tracer across the entire library using two different concentrations requires duplicate plates of transfected cells. Depending on the number of tracers being screened, transfections can be scaled up using the same ratios. The next day, for each tracer, four 20× screening solutions in tracer dilution buffer (Promega) were prepared: two duplicates at final concentration of 20 μM and two duplicates at a final concentration of 2 μM. A competing unmodified compound was added to one of each duplicate at a final concentration of 400 μM. The four resulting solutions were diluted 4-fold in Opti-MEM without serum or phenol red to generate 5× solutions (5 µM and 0.5 µM tracer +/− 100 μM competing compound). To screen the library, a BioTek MultiFlo FX liquid dispenser was used to dispense 22.5 µL of tracer solution to the top 4 rows and 22.5 µL tracer + competing compound solution to the 4 bottom rows. Plates were briefly mixed on an orbital shaker and incubated for 1.5 h at room temperature. […]

[2] = target: T2, CCKAR (Homo sapiens, UniProt P32238); assay: NanoBRET screen HiBiT-CCKAR in HEK293
T2 construct: purchased Promega (in-house HiBiT-GPCR construct library, NanoBRET)
T2 sequence (P32238 1-428): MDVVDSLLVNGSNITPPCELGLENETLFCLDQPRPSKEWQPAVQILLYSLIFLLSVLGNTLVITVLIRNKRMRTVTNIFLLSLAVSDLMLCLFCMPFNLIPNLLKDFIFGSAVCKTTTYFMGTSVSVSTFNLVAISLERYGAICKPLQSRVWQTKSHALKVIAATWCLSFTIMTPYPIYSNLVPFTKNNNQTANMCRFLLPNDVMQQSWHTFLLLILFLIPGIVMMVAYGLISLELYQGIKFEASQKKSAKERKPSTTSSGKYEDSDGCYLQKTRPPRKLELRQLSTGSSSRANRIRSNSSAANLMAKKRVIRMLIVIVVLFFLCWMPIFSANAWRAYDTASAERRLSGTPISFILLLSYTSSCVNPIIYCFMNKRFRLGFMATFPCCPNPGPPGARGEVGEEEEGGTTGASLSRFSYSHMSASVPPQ
Procedure: as §1, §2

[3] = target: T3, HTR1E (Homo sapiens, UniProt P28566); assay: NanoBRET screen HiBiT-HTR1E in HEK293
T3 construct: purchased Promega (in-house HiBiT-GPCR construct library, NanoBRET)
Procedure: as §1, §2

[4] = tracer at 0.1μM, listed as amitriptyline-b-2-NB590
[5] = tracer at 1μM, listed as amitriptyline-b-2-NB590

T1 sequence (P43119 whole entry): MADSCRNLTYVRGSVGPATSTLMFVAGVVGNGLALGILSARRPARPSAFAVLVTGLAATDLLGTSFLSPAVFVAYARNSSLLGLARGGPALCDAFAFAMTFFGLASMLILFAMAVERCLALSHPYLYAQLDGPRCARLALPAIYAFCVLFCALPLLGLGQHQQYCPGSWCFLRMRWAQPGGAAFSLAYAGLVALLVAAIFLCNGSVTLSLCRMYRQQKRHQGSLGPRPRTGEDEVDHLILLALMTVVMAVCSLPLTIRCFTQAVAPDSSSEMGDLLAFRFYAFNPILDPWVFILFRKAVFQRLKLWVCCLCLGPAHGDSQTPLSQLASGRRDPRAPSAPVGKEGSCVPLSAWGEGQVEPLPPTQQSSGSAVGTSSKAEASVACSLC
T3 sequence (P28566 whole entry): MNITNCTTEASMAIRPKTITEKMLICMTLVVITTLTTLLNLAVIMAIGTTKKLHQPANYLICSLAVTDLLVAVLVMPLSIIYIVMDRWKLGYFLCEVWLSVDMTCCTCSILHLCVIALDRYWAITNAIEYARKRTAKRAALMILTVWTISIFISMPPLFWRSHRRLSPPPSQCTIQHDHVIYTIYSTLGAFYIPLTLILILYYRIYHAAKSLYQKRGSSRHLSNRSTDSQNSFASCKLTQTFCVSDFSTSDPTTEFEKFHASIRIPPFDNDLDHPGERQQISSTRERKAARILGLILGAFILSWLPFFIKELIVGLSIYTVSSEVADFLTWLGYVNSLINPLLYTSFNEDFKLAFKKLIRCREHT

| Compound | NanoBRET Fold Response ([1]; PTGIR, tracer 0.1μM) | NanoBRET Fold Response ([1]; PTGIR, tracer 1μM) | NanoBRET Fold Response ([2]; CCKAR, tracer 0.1μM) | NanoBRET Fold Response ([2]; CCKAR, tracer 1μM) | NanoBRET Fold Response ([3]; HTR1E, tracer 0.1μM) | NanoBRET Fold Response ([3]; HTR1E, tracer 1μM) | also measured |
| --- | --- | --- | --- | --- | --- | --- | --- |
| O=C(CCc1ccc2n1[B-](F)(F)[N+]1=C(c3ccc[nH]3)C=CC1=C2)NCc1ccc(C(=O)NCCOCCC(=O)N[C@@H]2CC[C@@]3(O)[C@H]4Cc5ccc(O)c6c5[C@@]3(CCN4CC3CC3)[C@H]2O6)cc1 [Naltrexone-3-NB590] | 0.98 | 1.17 | 1.10 | 1.05 | 0.72 | 0.90 | – |
| CCCn1c(=O)c2[nH]c(-c3ccc(OCC(=O)NCCNC(=O)CCOCCNC(=O)c4ccc(CNC(=O)CCc5ccc6n5[B-](F)(F)[N+]5=C(c7ccc[nH]7)C=CC5=C6)cc4)cc3)nc2n(CCC)c1=O [XAC-3-NB590] | 0.99 | 1.05 | 1.01 | 1.01 | 1.08 | 0.78 | – |
| CC(C)N(CC[C@H](c1ccccc1)c1cc(CCNC(=O)c2ccc(CNC(=O)CCc3ccc4n3[B-](F)(F)[N+]3=C(c5ccc[nH]5)C=CC3=C4)cc2)ccc1O)C(C)C [Tolterodine-BZ-NB590] | 1.00 | 1.04 | 1.05 | 1.03 | 1.13 | 1.13 | – |
| COc1ccc2[nH]c(-c3ccc(CNC(=O)CCOCCOCCOCCOCCNC(=O)CCc4ccc5n4[B-](F)(F)[N+]4=C(c6ccc[nH]6)C=CC4=C5)cc3)c(CCNC(C)=O)c2n1 [AzomelatoninICO9-2-NB590] | – | – | – | – | – | – | NanoBRET Fold Response ([1]; 0.1μM tracer): 1.03; NanoBRET Fold Response ([1]; 1μM tracer): 0.98; NanoBRET Fold Response ([2]; 0.1μM tracer): 1.06; NanoBRET Fold Response ([2]; 1μM tracer): 1.04; NanoBRET Fold Response ([3]; 0.1μM tracer): 0.97; NanoBRET Fold Response ([3]; 1μM tracer): 1.18 |
| CN1CCN(C2=Nc3cc(Cl)ccc3N(CC(=O)NCCOCCOCCOCCOCCNC(=O)CCc3ccc4n3[B-](F)(F)[N+]3=C(c5ccc[nH]5)C=CC3=C4)c3ccccc32)CC1 [Clozapine-c-2-NB590] | – | – | – | – | – | – | NanoBRET Fold Response ([1]; PTGIR, 0.1μM tracer): 0.96; NanoBRET Fold Response ([1]; PTGIR, 1μM tracer): 1.09; NanoBRET Fold Response ([2]; CCKAR, 0.1μM tracer): 1.01; NanoBRET Fold Response ([2]; CCKAR, 1μM tracer): 0.74; NanoBRET Fold Response ([3]; HTR1E, 0.1μM tracer): 1.00; NanoBRET Fold Response ([3]; HTR1E, 1μM tracer): 0.91 |
| COc1ccccc1N1CCN(CCCCN2C(=O)c3ccc(CNC(=O)CCOCCNC(=O)c4ccc(CNC(=O)CCc5ccc6n5[B-](F)(F)[N+]5=C(c7ccc[nH]7)C=CC5=C6)cc4)cc3C2=O)CC1 [NAN-190-3-NB590] | 0.95 | 1.01 | 0.98 | 0.99 | 0.84 | 0.91 | – |
| Cc1nc2n(c(=O)c1CCN1CCC(c3noc4cc(F)ccc34)CC1)CCCC2OC(=O)NCCOCCOCCOCCOCCNC(=O)CCc1ccc2n1[B-](F)(F)[N+]1=C(c3ccc[nH]3)C=CC1=C2 (centres unmarked) [Risperidone-2-NB590] | 1.02 | 1.01 | 1.20 | 0.99 | 0.96 | 1.07 | – |
| O=C(CCOCCOCCOCCOCCNC(=O)CCc1ccc2n1[B-](F)(F)[N+]1=C(c3ccc[nH]3)C=CC1=C2)NCCCN1CCN(C2=Nc3ccccc3Oc3ccc(Cl)cc32)CC1 [Loxapine-a-2-NB590] | 0.99 | 1.04 | 1.02 | 0.99 | 1.01 | 0.96 | – |
| COc1ccccc1N1CCN(CCCCN2C(=O)c3ccc(CNC(=O)CCOCCOCCOCCOCCNC(=O)CCc4ccc5n4[B-](F)(F)[N+]4=C(c6ccc[nH]6)C=CC4=C5)cc3C2=O)CC1 [NAN-190-2-NB590] | 0.99 | 1.02 | 0.98 | 0.96 | 0.97 | – | – |
| CC(C)N(CC[C@H](c1ccccc1)c1cc(CCNC(=O)CCOCCOCCOCCOCCNC(=O)CCc2ccc3n2[B-](F)(F)[N+]2=C(c4ccc[nH]4)C=CC2=C3)ccc1O)C(C)C [Tolterodine-2-NB590] | 1.07 | 1.12 | 1.01 | 1.01 | 1.27 | 1.10 | – |
| N#CN=C(NCCCOc1cccc(CN2CCCCC2)c1)NCCNC(=O)CCOCCOCCOCCOCCNC(=O)CCc1ccc2n1[B-](F)(F)[N+]1=C(c3ccc[nH]3)C=CC1=C2 [Aminopotentidine-2-NB590] | 1.03 | 1.03 | 0.98 | 1.04 | 0.93 | 1.06 | – |
| CCOC(=O)c1cc(C#N)c(N2CCC(C(=O)NS(=O)(=O)Cc3ccccc3/C=C/C(=O)NCCNC(=O)CCc3ccc4n3[B-](F)(F)[N+]3=C(c5ccc[nH]5)C=CC3=C4)CC2)nc1C [AZD1283-1-NB590] | – | – | – | – | – | – | NanoBRET Fold Response ([1]; PTGIR, 0.1μM): 1.04; NanoBRET Fold Response ([1]; PTGIR, 1μM): 1.07; NanoBRET Fold Response ([2]; CCKAR, 0.1μM): 1.08; NanoBRET Fold Response ([2]; CCKAR, 1μM): 1.11; NanoBRET Fold Response ([3]; HTR1E, 0.1μM): 0.94; NanoBRET Fold Response ([3]; HTR1E, 1μM): 0.96 |
| CN(C)CCC=C1c2ccccc2CCc2ccc(C(=O)NCCNC(=O)CCOCCOCCOCCOCCNC(=O)CCc3ccc4n3[B-](F)(F)[N+]3=C(c5ccc[nH]5)C=CC3=C4)cc21 [Amitriptyline-b-2-NB590] | 0.99 | 0.98 | – | – | – | – | NanoBRET Fold Response [2, 4]: 1.11; NanoBRET Fold Response [2, 5]: 0.98; NanoBRET Fold Response [3, 4]: 1.01; NanoBRET Fold Response [3, 5]: 0.95 |
| CN(C)CCC=C1c2ccccc2CCc2ccc(C(=O)NCCNC(=O)CCOCCOCCOCCOCCNC(=O)CCc3ccc4n3[B-](F)(F)[N+]3=C(c5ccc[nH]5)C=CC3=C4)cc21 [Amitriptyline-a-2-NB590] | – | – | – | – | – | – | NanoBRET Fold Response ([2]; tracer at 0.1μM): 1.03; NanoBRET Fold Response ([2]; tracer at 1μM): 1.00; NanoBRET Fold Response ([3]; tracer at 0.1μM): 1.04; NanoBRET Fold Response ([3]; tracer at 1μM): 1.00 |
| CN(CCC=C1c2ccccc2CCc2ccccc21)C(=O)CCOCCOCCOCCOCCNC(=O)CCc1ccc2n1[B-](F)(F)[N+]1=C(c3ccc[nH]3)C=CC1=C2 [Amitriptyline-e-2-NB590] | – | – | – | – | – | – | NanoBRET Fold Response ([2]; tracer at 1μM): 1.00; NanoBRET Fold Response ([3]; tracer at 1μM): 0.96 |
